Tests used:
[1] = tested on: patients with agitation associated with Alzheimer's disease; assay: Phase 2/3 randomized, double-blind, controlled clinical trial of DM/BU in agitation associated with Alzheimer's disease; type: in vivo, human
Description: A Phase ⅔ randomized, double-blind, controlled, multicenter, U.S. clinical trial was conducted to evaluate the efficacy and safety of DM/BU in patients with agitation associated with Alzheimer's disease. […] An independent data monitoring committee performed an interim futility analysis and recommended no further randomization to the bupropion arm. Subsequently, patients were randomized in a 1:1 ratio to receive DM/BU or placebo. […] The minimum score on the CMAI is 29, corresponding to the total absence of symptoms, with higher scores corresponding to greater agitation. The primary endpoint of the study was the change from baseline in the CMAI total score at Week 5. P-values were calculated based on least square mean estimates.
Inclusion criteria included male or female […], diagnosis of probable Alzheimer's disease, according to the 2011 NIA-AA criteria, diagnosis of agitation, according to the IPA provisional definition of agitation, MMSE score between 10 and 24, an NPI-AA score≥4, and community dwelling. Exclusion criterial included dementia of non-Alzheimer's type and current use of a selective serotonin reuptake inhibitor and/or a serotonin and norepinephrine inhibitor (SSRI/SNRI). Demographics and baseline characteristics are shown in Table 9 of U.S. Pat. No. 10,898,453.

[2] = Solubility in water of the drug substance powder
[3] = CYP2D6 inhibited by administering quinidine; cited from earlier work
[4] = Example 3 / FIG. 1: effect of CYP2D6 poor metabolizer status on pharmacokinetics of the tablet after 8 days of twice daily dosing; settings: tablet 45 mg dextromethorphan hydrobromide/105 mg bupropion hydrochloride, 8 days twice daily; reference extensive or ultra-extensive CYP2D6 metabolizers; GMR
[5] = Inventor's clinical-trial finding: plasma levels in CYP2D6 poor metabolizers vs other patients after combination of bupropion and dextromethorphan; settings: combination of bupropion and dextromethorphan administered

CC(NC(C)(C)C)C(=O)c1cccc(Cl)c1 (centres unmarked) [bupropion]
mean reduction from baseline in CMAI total score ([1]; Week 5 (primary endpoint), placebo 11.5, DM/BU vs placebo p=0.010): 10.0 points | adverse event: diarrhea ([1]; both, human, in vivo, 5 weeks): 6.1% | adverse event: dizziness ([1]; both, human, in vivo, 5 weeks): 10.2% | adverse event: somnolence ([1]; both, human, in vivo, 5 weeks): 4.1% | rate of discontinuation due to adverse events ([1]; both, human, in vivo, 5 weeks): 2.0% | serious adverse events reported, patients ([1]; both, human, in vivo, 5 weeks): 8.2% | deaths in arm ([1]; one death in the placebo arm): one

CC(NC(C)(C)C)C(=O)c1cccc(Cl)c1.Cl (racemic) [Bupropion hydrochloride, (±)-1-(3-chlorophenyl)-2-[(1,1-dimethylethyl)amino]-1-propanone hydrochloride]
solubility in water [2]: highly soluble in water

Br.COc1ccc2c(c1)[C@]13CCCC[C@@H]1[C@H](C2)N(C)CC3 [Dextromethorphan hydrobromide, morphinan, 3-methoxy-17-methyl-, (9α, 13α, 14α), hydrobromide monohydrate]
solubility in water [2]: sparingly soluble in water

COc1ccc2c(c1)[C@]13CCCC[C@@H]1[C@H](C2)N(C)CC3 [dextromethorphan]
AUC0-12 of dextromethorphan higher for CYP2D6 poor metabolizers compared to non-poor metabolizers [3]: about 46% | Cmax of dextromethorphan higher for poor metabolizers compared to non-poor metabolizers [3]: about 40% | increase in dextromethorphan AUC0-12 for CYP2D6 poor metabolizers [4]: 3.40 fold | increase in dextromethorphan Cmax for CYP2D6 poor metabolizers [4]: 3.00 fold | Cmax and AUC of dextromethorphan in poor metabolizers vs patients who are not poor metabolizers [5]: significantly higher

From patent US12599576B2 (ANTECIP BIOVENTURES II LLC, priority 2022, dated 2026)
